In US20120302748A1, “TREATMENT OR PROPHYLAXIS OF PROLIFERATIVE CONDITIONS” (THE UNIVERSITY COURT OF THE UNIVERSITY OF DUNDEE, priority 2009, published 2012):

Key:
CHO/CYP1B1 cells = details: Chinese hamster
[1] = test system: human liver microsomes (HLM); experiment: Pooled human liver microsome (HLM) fragmentation of coumarin model prodrugs; assay type: in vitro ADME; details: 60 μl HLM in 1.5 ml, pH 7.4, 37° C.; mean ± standard deviation of three
Method: (§1) Supersomal™ enzyme metabolism was started by adding a stock solution of prodrug dissolved in DMSO to give a final concentration of 10 μmol dm^−3 prodrug and 0.5% DMSO. HLM screening used 60 microlitre microsomes, 100 μmol dm^−3 NADPH, in 10 mmol dm^−3 potassium phosphate buffer at pH 7.4 and 37° C., in 1.5 ml total reaction volume.
(§2) Therefore, enzymatic hydroxylation of the hetero-aromatic trigger and resultant linker fragmentation can be monitored in real time by release of the coumarin anion by kinetic fluorimetry.
(§3) Release of the coumarin anion indicative of linker fragmentation was monitored using a 1 cm path length fluorescence cell in a Cary Eclipse kinetic flourimeter with excitation and emission slits set at 5 nm. Coumarin anion release from compounds of the invention was detected at the excitation wavelength λex=350 nm and the emission wavelength λem=450 nm. Change in fluorescence intensity was quantified against a linear calibration plot of fluorescence intensity versus coumarin concentration (0 to 3.5 μmol dm^−3) in 10 mmol dm^−3 potassium phosphate buffer at pH 7.4 using the same instrument settings as for enzyme metabolism.

CYP1B1 [2] = target: T1, CYP1B1 (Homo sapiens, UniProt Q16678); experiment: Supersomal CYP1B1 fragmentation of coumarin model prodrugs (kinetic fluorimetry); assay type: biochemical; parameters: purchased BD Gentest, Oxford, UK; details: for Specific fragmentation activity CYP1B1: 10 μmol dm^−3 prodrug, 10 pmol enzyme, pH 7.4, 37° C., mean ± standard deviation of three
T1 sequence (Q16678 1-543): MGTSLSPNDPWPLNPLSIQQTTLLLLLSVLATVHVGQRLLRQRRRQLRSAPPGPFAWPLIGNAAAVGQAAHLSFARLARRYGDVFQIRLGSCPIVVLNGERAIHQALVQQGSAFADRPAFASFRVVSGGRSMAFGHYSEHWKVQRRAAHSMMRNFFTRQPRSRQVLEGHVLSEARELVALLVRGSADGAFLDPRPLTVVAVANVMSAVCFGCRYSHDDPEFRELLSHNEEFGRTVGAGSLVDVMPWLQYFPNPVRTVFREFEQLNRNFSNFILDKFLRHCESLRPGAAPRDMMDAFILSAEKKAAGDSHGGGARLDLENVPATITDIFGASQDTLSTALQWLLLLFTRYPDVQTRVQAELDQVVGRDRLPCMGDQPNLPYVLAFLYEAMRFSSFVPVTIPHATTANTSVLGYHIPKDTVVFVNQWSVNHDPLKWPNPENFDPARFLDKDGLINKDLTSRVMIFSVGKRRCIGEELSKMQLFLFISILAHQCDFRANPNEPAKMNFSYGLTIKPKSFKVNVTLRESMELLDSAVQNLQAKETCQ
Method: as §1, §2, §3

CYP1A2 = target: T2, CYP1A2 (Homo sapiens, UniProt P05177); experiment: Supersomal CYP1A2 fragmentation of coumarin model prodrugs (kinetic fluorimetry); assay type: biochemical; details: 10 μmol dm^−3 prodrug, 10 pmol enzyme, pH 7.4, 37° C.; mean ± standard deviation of three
T2 construct: purchased BD Gentest, Oxford, UK
T2 sequence (P05177 2-516 limits assumed): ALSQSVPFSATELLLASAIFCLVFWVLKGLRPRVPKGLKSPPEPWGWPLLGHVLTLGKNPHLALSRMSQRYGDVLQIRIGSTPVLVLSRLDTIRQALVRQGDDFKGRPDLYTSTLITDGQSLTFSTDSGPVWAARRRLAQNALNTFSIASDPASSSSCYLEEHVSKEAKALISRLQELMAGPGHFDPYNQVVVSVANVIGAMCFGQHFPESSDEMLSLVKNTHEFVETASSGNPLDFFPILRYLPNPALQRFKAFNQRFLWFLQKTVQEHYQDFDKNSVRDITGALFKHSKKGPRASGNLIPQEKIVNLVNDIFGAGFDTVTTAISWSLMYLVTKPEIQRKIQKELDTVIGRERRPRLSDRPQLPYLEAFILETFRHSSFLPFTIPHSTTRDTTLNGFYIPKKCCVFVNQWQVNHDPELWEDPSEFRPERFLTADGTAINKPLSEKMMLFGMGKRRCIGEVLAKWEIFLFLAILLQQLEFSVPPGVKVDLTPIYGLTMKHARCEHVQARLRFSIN
Method: as §1, §2, §3

UT-SCC-14 tumour cells = experiment: Cytotoxicity in primary HNSCC tumour cell line UT-SCC-14 (MTS assay); details: Homo sapiens, 72 h, read-out: cytotoxicity IC50 UT-SCC-14
Method: A UT-SCC-14 tumour cell suspension at 2000 cells per well on a 96-well plate and if necessary add fresh media to give a total volume per well of 100 μl. The cells were allowed to attach for 4 h in an incubator. […] The final concentration of ethanol 0.2% was found not to effect the growth characteristics of the UT-SCC-14 cell line. The UT-SCC-14 cells were incubated with test compound for 72 h after which time all aspirated and replaced with 100 μl of fresh medium to compensate for the loss of medium due to evaporation. The cells were incubated with 20 μl of the MTS assay reagent for 1.5 h and the absorbance per well at 510 nm measured using a plate reader. The mean absorbance and standard deviation for each test compound concentration was calculated versus a series of controls including (a) cells plus medium, (b) cell plus medium containing ethanol 0.2%, (c) medium alone, and (d) medium containing ethanol 0.2% and a range of test compound concentrations from 0 to 100 μmol dm^−3.

CYP1B1 [3] = target: T1, CYP1B1; experiment: CYP1B1 substrate prediction model (Gaussian Kernel weighted k-NN); details: predicted versus actual
CYP1B1 [4] = target: T1, CYP1B1; experiment: in vitro
CYP1A1 = target: T3, CYP1A1 (Homo sapiens, UniProt P04798); experiment: Supersomal CYP1A1 fragmentation of coumarin model prodrugs (kinetic fluorimetry); assay type: biochemical; parameters: purchased BD Gentest, Oxford, UK; details: 10 μmol dm^−3 prodrug, 10 pmol enzyme, pH 7.4, 37° C.; mean ± standard deviation of three
T3 sequence (P04798 1-512): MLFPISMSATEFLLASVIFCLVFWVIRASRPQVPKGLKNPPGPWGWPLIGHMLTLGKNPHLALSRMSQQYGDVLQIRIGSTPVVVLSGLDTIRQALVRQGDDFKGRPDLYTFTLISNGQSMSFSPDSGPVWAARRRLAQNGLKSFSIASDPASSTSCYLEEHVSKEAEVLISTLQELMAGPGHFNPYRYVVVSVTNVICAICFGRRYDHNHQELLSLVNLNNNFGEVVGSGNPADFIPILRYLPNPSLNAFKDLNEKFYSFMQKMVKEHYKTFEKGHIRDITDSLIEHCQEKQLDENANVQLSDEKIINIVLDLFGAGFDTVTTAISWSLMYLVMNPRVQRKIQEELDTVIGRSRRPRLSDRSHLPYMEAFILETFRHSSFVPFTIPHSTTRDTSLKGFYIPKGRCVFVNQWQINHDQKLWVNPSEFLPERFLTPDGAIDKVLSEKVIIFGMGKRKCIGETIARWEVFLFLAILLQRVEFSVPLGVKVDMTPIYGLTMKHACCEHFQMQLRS
Method: as §1, §2, §3

Row | Compound | Specific fragmentation activity HLM [1] | Specific fragmentation activity CYP1B1 (CYP1B1 [2]) | Specific fragmentation activity CYP1A2 (CYP1A2) | % CYP1B1 substrate inhibition accuracy (CYP1B1 [3]) [%] | inhibition at 0.5 mmol dm^−3 (CYP1B1 [4]) [%] | further results
1 | O=P(O)(NCCCl)NCCCl [Cl-IPM, N,N-bis(2-chloro-ethyl)phosphoramide, reference compound] | – | – | – | – | – | IC50 (CHO/CYP1B1 cells): 8 ± 5 nM
2 | Cc1cc(=O)oc2cc(OCc3cc4ccccc4o3)ccc12 [SU010A, 7-(benzofuran-2-ylmethoxy)-4-methyl-2H-chromen-2-one] | 22.8 ± 0.69 pmol coumarin min^−1 pmol cytochrome P450^−1 | 5.19 ± 0.15 pmol coumarin min^−1 pmol cytochrome P450^−1 | – | – | – | –
3 | Cc1cc(=O)oc2cc(NC(=O)OCc3cc4ccccc4o3)ccc12 [SU018-03, benzofuran-2-ylmethyl 4-methyl-2-oxo-2H-chromen-7-ylcarbamate] | no release | no release | no release | – | – | –
4 | COc1cc(OC)c2oc(COC(=O)Nc3ccn(C4OC(CO)C(O)C4(F)F)c(=O)n3)cc2c1 (centres unmarked) [SU048-04, (5,7-dimethoxybenzofuran-2-yl)methyl 1-(3,3-difluoro-4-hydroxy-5-(hydroxymethyl)-tetrahydrofuran-2-yl)-2-oxo-1,2-dihydropyrimidin-4-ylcarbamate] | – | – | – | – | – | IC50 (UT-SCC-14 tumour cells): 940 ± 20 nM
5 | Cc1cc(=O)oc2cc(OCc3cc4cc(F)ccc4o3)ccc12 [VG015-05, 7-((5-fluorobenzofuran-2-yl)methoxy)-4-methyl-2H-chromen-2-one] | – | 3.16 ± 0.28 pmol coumarin min^−1 pmol cytochrome P450^−1 | – | – | – | –
6 | Cc1cc(=O)oc2cc(OCc3cc4cc(F)cc(F)c4o3)ccc12 [VG016-05, 7-((5,7-difluorobenzofuran-2-yl)methoxy)-4-methyl-2H-chromen-2-one] | no release | no release | no release | 82 | 2.45 ± 0.32 | Specific fragmentation activity CYP1A1 (CYP1A1): no release
7 | COc1ccc2oc(COc3ccc4c(C)cc(=O)oc4c3)cc2c1 [VG027-05, 7-((5-methoxybenzofuran-2-yl)methoxy)-4-methyl-2H-chromen-2-one] | 8.98 ± 0.49 pmol coumarin min^−1 pmol cytochrome P450^−1 | 11.83 ± 0.15 pmol coumarin min^−1 pmol cytochrome P450^−1 | – | – | – | –
8 | Cc1cc(=O)oc2cc(OCc3cc4cc(Cl)ccc4o3)ccc12 [VG028-05, 7-((5-chlorobenzofuran-2-yl)methoxy)-4-methyl-2H-chromen-2-one] | – | 6.67 ± 0.01 pmol coumarin min^−1 pmol cytochrome P450^−1 | – | – | – | –
9 | COc1cccc2cc(COc3ccc4c(C)cc(=O)oc4c3)oc12 [VG029-05, 7-((7-methoxybenzofuran-2-yl)methoxy)-4-methyl-2H-chromen-2-one] | – | 6.45 ± 1.15 pmol coumarin min^−1 pmol cytochrome P450^−1 | – | – | – | –
10 | COc1ccc2oc(COC(=O)Nc3ccc4c(C)cc(=O)oc4c3)cc2c1 [VG032-05, (5-methoxybenzofuran-2-yl)methyl 4-methyl-2-oxo-2H-chromen-7-ylcarbamate] | 3.21 ± 0.25 pmol coumarin min^−1 pmol cytochrome P450^−1 | 1.53±0.09 pmol coumarin min^−1 pmol cytochrome P450^−1 | no release | – | – | CYP1B1 specific fragmentation activity, fold lower than VG027-05 (CYP1B1 [2]; carbamate linker versus ether linker): ~6 fold
11 | Cc1cc(=O)oc2cc(OCc3cc4cc(Br)ccc4o3)ccc12 [VG035-04, 7-((5-bromobenzofuran-2-yl)methoxy)-4-methyl-2H-chromen-2-one] | – | 8.85 ± 0.28 pmol coumarin min^−1 pmol cytochrome P450^−1 | – | – | – | –
12 | COc1cc(OC)c2oc(COc3ccc4c(C)cc(=O)oc4c3)cc2c1 [VG035-05, 7-((5,7-dimethoxybenzofuran-2-yl)methoxy)-4-methyl-2H-chromen-2-one] | no release | 13.65±1.00 pmol coumarin min^−1 pmol cytochrome P450^−1 | no release | 96 | 97.34 ± 0.32 | Specific fragmentation activity CYP1A1 (CYP1A1): no release
13 | Cc1cc(=O)oc2cc(NC(=O)OCc3cc4cc(Br)ccc4o3)ccc12 [VG036-05, (5-bromobenzofuran-2-yl)methyl 4-methyl-2-oxo-2H-chromen-7-ylcarbamate] | no release | no release | no release | – | – | Specific fragmentation activity CYP1A1 (CYP1A1): no release
14 | COc1cc(OC)c2oc(COC(=O)Nc3ccc4c(C)cc(=O)oc4c3)cc2c1 [VG041-05, (5,7-dimethoxybenzofuran-2-yl)methyl 4-methyl-2-oxo-2H-chromen-7-ylcarbamate] | no release | no release | no release | – | – | –
15 | CCOc1ccc2nc3ccc(=O)cc-3oc2c1 [ethoxyresorufin, 7-ethoxyresorufin] | – | – | – | 95 | 92.13 ± 0.56 | –
16 | C=C[C@H]1C[N@@]2CC[C@H]1C[C@@H]2[C@@H](O)c1ccnc2ccc(OC)cc12 [quinidine] | – | – | – | 64 | 1.63 ± 0.34 | –
17 | Oc1ccc(C=Cc2cc(O)cc(O)c2)cc1 [resveratrol] | – | – | – | 95 | 72.34 ± 0.56 | –
18 | Nc1ccc(S(=O)(=O)Nc2ccnn2-c2ccccc2)cc1 [sulfaphenazole] | – | – | – | 68 | 2.89 ± 0.15 | –
